This test deals with T1, SYK (Homo sapiens, UniProt P43405).
T1 construct: Recombinant proteins SYK FL was produced at NMS via baculo virus infection in insect cells; His; GST; made in house; host or cells: insect cells (baculovirus)
As to the kind of experiment: Biochemical kinase inhibition assay on SYK, KinaseGlo assay format. To be noted: Table A; KinaseGlo format, pre-activated SYK 2.5 nM, ATP 2.5 μM, substrate BioDBn*327 125 uM, 60 minutes at rt; read-out: IC50 (μM) Kglo. (In general: Kinase-Glo measures the ATP left after a reaction by luminescence.)

Where a name gives a salt, the structure may show the parent alone. A value given as a limit tells only on which side of the number the result lay.

On to `Cc1cc(C)cc(Nc2nccc(-c3cc(C(=O)NC(C)C)n(C)n3)n2)c1` [Example 4, 3-{2-[(3,5-dimethylphenyl)amino]pyrimidin-4-yl}-1-methyl-N-(propan-2-yl)-1H-pyrazole-5-carboxamide], for which the IC50 was found to be 0.111 µM. Turning to `Cc1cc(C)cc(Nc2nccc(-c3cc(C(=O)N(C)CCN(C)C)n(C)n3)n2)c1` [Example 5, N-[2-(dimethylamino)ethyl]-3-{2-[(3,5-dimethylphenyl)amino]pyrimidin-4-yl}-N,1-dimethyl-1H-pyrazole-5-carboxamide], the half-inhibitory concentration (IC50) was found to be 0.084 µM. As to `Cc1cc(C)cc(Nc2nccc(-c3cc(C(=O)NC4CNC4)n(C)n3)n2)c1` [Example 8, N-(azetidin-3-yl)-3-{2-[(3,5-dimethylphenyl)amino]pyrimidin-4-yl}-1-methyl-1H-pyrazole-5-carboxamide trifluoroacetate], the concentration for half-maximal inhibition (IC50) amounted to 0.282 µM. Turning to `Cc1cc(C)cc(Nc2nccc(-c3cc(C(=O)NCCN4CCOCC4)n(C)n3)n2)c1` [Example 9, 3-{2-[(3,5-dimethylphenyl)amino]pyrimidin-4-yl}-1-methyl-N-[2-(morpholin-4-yl)ethyl]-1H-pyrazole-5-carboxamide], the IC50 was 0.398 µM. Take `Cc1cc(C)cc(Nc2nccc(-c3cc(C(=O)NCCNC(C)C)n(C)n3)n2)c1` [Example 12, 3-{2-[(3,5-dimethylphenyl)amino]pyrimidin-4-yl}-1-methyl-N-[2-(propan-2-ylamino)ethyl]-1H-pyrazole-5-carboxamide hydrochloride]: the IC50 was determined as 0.398 µM. On to `Cc1cc(C)cc(Nc2nccc(-c3cc(C(N)=O)n(C)n3)n2)c1` [Example 13, 3-{2-[(3,5-dimethylphenyl)amino]pyrimidin-4-yl}-1-methyl-1H-pyrazole-5-carboxamide], for which the IC50 was 0.226 µM. `Cc1cc(C)cc(Nc2nccc(-c3cc(C(=O)N(C)C)n(C)n3)n2)c1` [Example 15, 3-{2-[(3,5-dimethylphenyl)amino]pyrimidin-4-yl}-N,N,1-trimethyl-1H-pyrazole-5-carboxamide]: the half-maximal inhibitory concentration (IC50) worked out at 0.358 µM. `COCCNC(=O)c1cc(-c2ccnc(Nc3cc(C)cc(C)c3)n2)nn1C` [Example 16, 3-{2-[(3,5-dimethylphenyl)amino]pyrimidin-4-yl}-N-(2-methoxyethyl)-1-methyl-1H-pyrazole-5-carboxamide]: the concentration for half-maximal inhibition (IC50) is 0.272 µM. Under `Cc1cc(C)cc(Nc2nccc(-c3cc(C(=O)NCCF)n(C)n3)n2)c1` [Example 17, 3-{2-[(3,5-dimethylphenyl)amino]pyrimidin-4-yl}-N-(2-fluoroethyl)-1-methyl-1H-pyrazole-5-carboxamide] stands 0.06 µM; under `CN(C)CCNC(=O)c1cc(-c2ccnc(Nc3cc(C(F)(F)F)cc(C(F)(F)F)c3)n2)nn1C` [Example 18, 3-(2-{[3,5-bis(trifluoromethyl)phenyl]amino}pyrimidin-4-yl)-N-[2-(dimethylamino)ethyl]-1-methyl-1H-pyrazole-5-carboxamide hydrochloride], 0.491 µM. With `C[C@@H](CO)NC(=O)c1cc(-c2ccnc(Nc3cc(C(F)(F)F)cc(C(F)(F)F)c3)n2)nn1C` [Example 19, 3-(2-{[3,5-bis(trifluoromethyl)phenyl]amino}pyrimidin-4-yl)-N-[(2S)-1-hydroxypropan-2-yl]-1-methyl-1H-pyrazole-5-carboxamide], the half-inhibitory concentration (IC50) stood at 0.104 µM.

As to `Cc1cc(C)cc(Nc2nccc(-c3cc(C(=O)Nc4cc[nH]n4)n(C)n3)n2)c1` [Example 20, 3-{2-[(3,5-dimethylphenyl)amino]pyrimidin-4-yl}-1-methyl-N-(1H-pyrazol-3-yl)-1H-pyrazole-5-carboxamide], the IC50 was 0.109 µM.

For `Cc1cc(C)cc(Nc2nccc(-c3cc(C(=O)N4CCN(C)CC4)n(C)n3)n2)c1` [Example 21, (3-{2-[(3,5-dimethylphenyl)amino]pyrimidin-4-yl}-1-methyl-1H-pyrazol-5-yl)(4-methylpiperazin-1-yl)methanone], the concentration for half-maximal inhibition (IC50) worked out at 0.238 µM. As to `Cc1cc(C)cc(Nc2nccc(-c3cc(C(=O)NCc4cncn4C)n(C)n3)n2)c1` [Example 25, 3-{2-[(3,5-dimethylphenyl)amino]pyrimidin-4-yl}-1-methyl-N-[(1-methyl-1H-imidazol-5-yl)methyl]-1H-pyrazole-5-carboxamide], the half-inhibitory concentration (IC50) amounted to 0.249 µM. Regarding `Cc1cc(C)cc(Nc2nccc(-c3cc(C(=O)NC4CN5CCC4CC5)n(C)n3)n2)c1` (stereo not shown) [Example 31, N-(1-azabicyclo[2.2.2]oct-3-yl)-3-{2-[(3,5-dimethylphenyl)amino]pyrimidin-4-yl}-1-methyl-1H-pyrazole-5-carboxamide], the IC50 was determined as 0.139 µM. `Cc1cc(C)cc(Nc2nccc(-c3cc(C(=O)N[C@@H]4CCCC[C@H]4O)n(C)n3)n2)c1` [Example 32, 5-[2-(3,5-Dimethyl-phenylamino)-pyrimidin-4-yl]-2-methyl-2H-pyrazole-3-carboxylic acid ((1R,2R)-2-hydroxy-cyclohexyl)-amide]: the IC50 stood at 0.074 µM. As to `Cc1cc(C)cc(Nc2nccc(-c3cc(C(=O)N4CCNCC4)n(C)n3)n2)c1` [Example 36, (3-{2-[(3,5-dimethylphenyl)amino]pyrimidin-4-yl}-1-methyl-1H-pyrazol-5-yl)(piperazin-1-yl)methanone hydrochloride], the concentration for half-maximal inhibition (IC50) was 0.169 µM. Regarding `COc1cc(Nc2nccc(-c3cc(C(=O)N[C@H]4CCCC[C@H]4N)n(C)n3)n2)cc(C(F)(F)F)c1` [Example 37, N-[(1S,2R)-2-aminocyclohexyl]-3-(2-{[3-methoxy-5-(trifluoromethyl)phenyl]amino}pyrimidin-4-yl)-1-methyl-1H-pyrazole-5-carboxamide hydrochloride], the IC50 worked out at 0.009 µM. `Cn1nc(-c2ccnc(Nc3ccc4c(c3)c(Cl)cn4C)n2)cc1C(=O)N[C@H]1CCCC[C@H]1N` [Example 38, N-[(1S,2R)-2-aminocyclohexyl]-3-{2-[(3-chloro-1-methyl-1H-indol-5-yl)amino]pyrimidin-4-yl}-1-methyl-1H-pyrazole-5-carboxamide hydrochloride]: the IC50 was 0.005 µM. On to `Cc1cccc(Nc2nccc(-c3cc(C(=O)N[C@H](CO)C(C)C)n(C)n3)n2)c1` [Example 41, N-[(2S)-1-hydroxy-3-methylbutan-2-yl]-1-methyl-3-{2-[(3-methylphenyl)amino]pyrimidin-4-yl}-1H-pyrazole-5-carboxamide], for which the concentration for half-maximal inhibition (IC50) turned out to be 0.077 µM. As to `Cc1cc(C)cc(Nc2nccc(-c3cc(C(=O)N[C@@H](C)C(F)(F)F)n(C)n3)n2)c1` [Example 42, 3-{2-[(3,5-dimethylphenyl)amino]pyrimidin-4-yl}-1-methyl-N-[(2S)-1,1,1-trifluoropropan-2-yl]-1H-pyrazole-5-carboxamide], the IC50 was 0.474 µM. With `Cc1cc(C)cc(Nc2nccc(-c3cc(C(=O)NCC(C)(C)C)n(C)n3)n2)c1` [Example 45, 3-{2-[(3,5-dimethylphenyl)amino]pyrimidin-4-yl}-N-(2,2-dimethylpropyl)-1-methyl-1H-pyrazole-5-carboxamide], the IC50 stood at 0.065 µM. For the compound `Cc1cc(C)cc(Nc2nccc(-c3cc(C(=O)NCC(C)C)n(C)n3)n2)c1` [Example 46, 3-{2-[(3,5-dimethylphenyl)amino]pyrimidin-4-yl}-1-methyl-N-(2-methylpropyl)-1H-pyrazole-5-carboxamide], the 50% inhibitory concentration (IC50) is 0.049 µM.

Take `Cc1cc(C)cc(Nc2nccc(-c3cc(C(=O)NCC4CC4)n(C)n3)n2)c1` [Example 47, N-(cyclopropylmethyl)-3-{2-[(3,5-dimethylphenyl)amino]pyrimidin-4-yl}-1-methyl-1H-pyrazole-5-carboxamide]: the concentration for half-maximal inhibition (IC50) was 0.04 µM. Under `Cc1cccc(Nc2nccc(-c3cc(C(=O)N[C@H]4CCCC[C@@H]4N)n(C)n3)n2)c1` [Example 53, N-[(1S,2S)-2-aminocyclohexyl]-1-methyl-3-{2-[(3-methylphenyl)amino]pyrimidin-4-yl}-1H-pyrazole-5-carboxamide] stands 0.015 µM; under `CC[C@H](NC(=O)c1cc(-c2ccnc(Nc3cc(C)cc(C)c3)n2)nn1C)C(F)(F)F` [Example 55, 3-{2-[(3,5-dimethylphenyl)amino]pyrimidin-4-yl}-1-methyl-N-[(2S)-1,1,1-trifluorobutan-2-yl]-1H-pyrazole-5-carboxamide], 0.324 µM. With `CC[C@@H](NC(=O)c1cc(-c2ccnc(Nc3cc(C)cc(C)c3)n2)nn1C)C(F)(F)F` [Example 56, 3-{2-[(3,5-dimethylphenyl)amino]pyrimidin-4-yl}-1-methyl-N-[(2R)-1,1,1-trifluorobutan-2-yl]-1H-pyrazole-5-carboxamide], the IC50 turned out to be 0.081 µM.

For the compound `COc1cc(Nc2nccc(-c3cc(C(=O)N[C@@H](C)CN4CCCC4)n(C)n3)n2)cc(OC)c1OC` [Example 58, 1-methyl-N-[(2S)-1-(pyrrolidin-1-yl)propan-2-yl]-3-{2-[(3,4,5-trimethoxyphenyl)amino]pyrimidin-4-yl}-1H-pyrazole-5-carboxamide], the half-inhibitory concentration (IC50) amounted to 0.059 µM. With `C[C@@H](CN1CCC1)NC(=O)c1cc(-c2ccnc(Nc3ccc4c(c3)c(Cl)cn4C)n2)nn1C` [Example 59, N-[(2S)-1-(azetidin-1-yl)propan-2-yl]-3-{2-[(3-chloro-1-methyl-1H-indol-5-yl)amino]pyrimidin-4-yl}-1-methyl-1H-pyrazole-5-carboxamide], the IC50 was under 0.004 µM. As to `CC(C)[C@@H](CN1CCC1)NC(=O)c1cc(-c2ccnc(Nc3cc(Cl)cc(Cl)c3)n2)nn1C` [Example 61, N-[(2S)-1-(azetidin-1-yl)-3-methylbutan-2-yl]-3-{2-[(3,5-dichlorophenyl)amino]pyrimidin-4-yl}-1-methyl-1H-pyrazole-5-carboxamide], the IC50 was 0.004 µM. In the case of `COc1cccc(Nc2nccc(-c3cc(C(=O)N[C@@H](C)CN4CCCC4)n(C)n3)n2)c1` [Example 70, 3-{2-[(3-methoxyphenyl)amino]pyrimidin-4-yl}-1-methyl-N-[(2S)-1-(pyrrolidin-1-yl)propan-2-yl]-1H-pyrazole-5-carboxamide], the IC50 turned out to be 0.032 µM.

The term IC50 denotes the concentration that gives 50% inhibition.

Source of the values: patent US20240285621A1, “PYRAZOLYL-PYRIMIDINE DERIVATIVES AS KINASE INHIBITORS” (NERVIANO MEDICAL SCIENCES S.R.L., priority 2020, published 2024).
